ChEMBL document CHEMBL4219190, “Studies on synthesis of novel pyrido[2,3-d]pyrimidine derivatives, evaluation of their antimicrobial activity and molecular docking” (Bioorg Med Chem Lett, 2018)
≈ marks a conversion by molar mass, not a printed value.

What was measured:
[1] = test system: Candida albicans; test: Fungicidal activity against Candida albicans MTCC 183 incubated for 24 hrs followed by transfer of microbial suspension to Sabouraud dextrose agar plates and measured after 24 hrs post transfer; type: functional; settings: MTCC 183, 24 h
[2] = test system: [Candida] aaseri; test: Fungicidal activity against Candida aaseri MTCC 1962 incubated for 24 hrs followed by transfer of microbial suspension to Sabouraud dextrose agar plates and measured after 24 hrs post transfer; type: functional; settings: Yamadazyma aaseri, MTCC 1962, 24 h
[3] = test system: Candida albicans; test: Fungicidal activity against Candida albicans MTCC 7315 incubated for 24 hrs followed by transfer of microbial suspension to Sabouraud dextrose agar plates and measured after 24 hrs post transfer; type: functional; settings: MTCC 7315, 24 h
[4] = test system: Candida albicans; test: Antifungal activity against Candida albicans MTCC 3017 after 24 hrs by well diffusion method; type: functional; settings: MTCC 3017, 24 h
[5] = test system: Pichia kudriavzevii; test: Antifungal activity against Candida krusei MTCC 3020 after 24 hrs by well diffusion method; type: functional; settings: MTCC 3020, 24 h
[6] = test system: Candida albicans; test: Fungicidal activity against Candida albicans MTCC 3017 incubated for 24 hrs followed by transfer of microbial suspension to Sabouraud dextrose agar plates and measured after 24 hrs post transfer; type: functional; settings: MTCC 3017, 24 h
[7] = test system: Candida albicans; test: Fungicidal activity against Candida albicans MTCC 3958 incubated for 24 hrs followed by transfer of microbial suspension to Sabouraud dextrose agar plates and measured after 24 hrs post transfer; type: functional; settings: MTCC 3958, 24 h
[8] = test system: Candida albicans; test: Fungicidal activity against Candida albicans MTCC 3018 incubated for 24 hrs followed by transfer of microbial suspension to Sabouraud dextrose agar plates and measured after 24 hrs post transfer; type: functional; settings: MTCC 3018, 24 h
[9] = test system: Candida albicans; test: Inhibition of ergosterol in Candida albicans MTCC 183 after 20 hrs by UV spectrophotometric method; type: functional, organism-based
[10] = test system: Candida albicans; test: Fungicidal activity against Candida albicans MTCC 227 incubated for 24 hrs followed by transfer of microbial suspension to Sabouraud dextrose agar plates and measured after 24 hrs post transfer; type: functional; settings: MTCC 227, 24 h
[11] = test system: Pichia sporocuriosa; test: Fungicidal activity against Issatchenkia hanoiensis MTCC 4755 incubated for 24 hrs followed by transfer of microbial suspension to Sabouraud dextrose agar plates and measured after 24 hrs post transfer; type: functional; settings: MTCC 4755, 24 h
[12] = test system: Candida parapsilosis; test: Antifungal activity against Candida parapsilosis MTCC 1744 after 24 hrs by well diffusion method; type: functional; settings: MTCC 1744, 24 h
[13] = test system: Candida albicans; test: Fungicidal activity against Candida albicans MTCC 4748 incubated for 24 hrs followed by transfer of microbial suspension to Sabouraud dextrose agar plates and measured after 24 hrs post transfer; type: functional; settings: MTCC 4748, 24 h
[14] = test system: Candida albicans; test: Antifungal activity against Candida albicans MTCC 227 after 24 hrs by well diffusion method; type: functional; settings: MTCC 227, 24 h
[15] = test system: Candida albicans; test: Antifungal activity against Candida albicans MTCC 854 after 24 hrs by well diffusion method; type: functional; settings: MTCC 854, 24 h
[16] = test system: Pichia kudriavzevii; test: Fungicidal activity against Candida krusei MTCC 3020 incubated for 24 hrs followed by transfer of microbial suspension to Sabouraud dextrose agar plates and measured after 24 hrs post transfer; type: functional; settings: MTCC 3020, 24 h
[17] = test system: Candida albicans; test: Antifungal activity against Candida albicans MTCC 4748 after 24 hrs by well diffusion method; type: functional; settings: MTCC 4748, 24 h
[18] = test system: Candida albicans; test: Antifungal activity against Candida albicans MTCC 7315 after 24 hrs by well diffusion method; type: functional; settings: MTCC 7315, 24 h
[19] = test system: Pichia sporocuriosa; test: Antifungal activity against Issatchenkia hanoiensis MTCC 4755 after 24 hrs by well diffusion method; type: functional; settings: MTCC 4755, 24 h
[20] = test system: [Candida] aaseri; test: Antifungal activity against Candida aaseri MTCC 1962 after 24 hrs by well diffusion method; type: functional; settings: Yamadazyma aaseri, MTCC 1962, 24 h
[21] = test system: Candida parapsilosis; test: Fungicidal activity against Candida parapsilosis MTCC 1744 incubated for 24 hrs followed by transfer of microbial suspension to Sabouraud dextrose agar plates and measured after 24 hrs post transfer; type: functional; settings: Lodderomyces parapsilosis, MTCC 1744, 24 h
[22] = test system: Candida albicans; test: Fungicidal activity against Candida albicans MTCC 1637 incubated for 24 hrs followed by transfer of microbial suspension to Sabouraud dextrose agar plates and measured after 24 hrs post transfer; type: functional; settings: MTCC 1637, 24 h
[23] = test system: Nakaseomyces glabratus; test: Fungicidal activity against Candida glabrata MTCC 3019 incubated for 24 hrs followed by transfer of microbial suspension to Sabouraud dextrose agar plates and measured after 24 hrs post transfer; type: functional; settings: MTCC 3019, 24 h
[24] = test system: Candida albicans; test: Antifungal activity against Candida albicans MTCC 3018 after 24 hrs by well diffusion method; type: functional; settings: MTCC 3018, 24 h
[25] = test system: Candida albicans; test: Antifungal activity against Candida albicans MTCC 1637 after 24 hrs by well diffusion method; type: functional; settings: MTCC 1637, 24 h
[26] = test system: Candida albicans; test: Fungicidal activity against Candida albicans MTCC 854 incubated for 24 hrs followed by transfer of microbial suspension to Sabouraud dextrose agar plates and measured after 24 hrs post transfer; type: functional; settings: MTCC 854, 24 h
[27] = test system: Candida albicans; test: Antifungal activity against Candida albicans MTCC 3958 after 24 hrs by well diffusion method; type: functional; settings: MTCC 3958, 24 h
[28] = test system: Candida albicans; test: Antifungal activity against Candida albicans MTCC 183 after 24 hrs by well diffusion method; type: functional; settings: MTCC 183, 24 h
[29] = test system: Nakaseomyces glabratus; test: Antifungal activity against Candida glabrata MTCC 3019 after 24 hrs by well diffusion method; type: functional; settings: MTCC 3019, 24 h

Clc1ccc(COC(Cn2ccnc2)c2ccc(Cl)cc2Cl)c(Cl)c1 (centres undefined) [MICONAZOLE]
MFC [1]: 7.8 µg/mL (≈ 18.7 µM) | MFC [2]: 15.6 µg/mL (≈ 37.5 µM) | MFC [3]: 15.6 µg/mL (≈ 37.5 µM) | MIC [4]: 7.8 µg/mL (≈ 18.7 µM) | MIC [5]: 7.8 µg/mL (≈ 18.7 µM) | MFC [6]: 7.8 µg/mL (≈ 18.7 µM) | MFC [7]: 7.8 µg/mL (≈ 18.7 µM) | MFC [8]: 15.6 µg/mL (≈ 37.5 µM) | inhibition [9]: Dose-dependent effect | MFC [10]: 7.8 µg/mL (≈ 18.7 µM) | MFC [11]: 15.6 µg/mL (≈ 37.5 µM) | MIC [12]: 7.8 µg/mL (≈ 18.7 µM) | MFC [13]: 7.8 µg/mL (≈ 18.7 µM) | MIC [14]: 7.8 µg/mL (≈ 18.7 µM) | MIC [15]: 7.8 µg/mL (≈ 18.7 µM) | MFC [16]: 15.6 µg/mL (≈ 37.5 µM) | MIC [17]: 7.8 µg/mL (≈ 18.7 µM) | MIC [18]: 7.8 µg/mL (≈ 18.7 µM) | MIC [19]: 7.8 µg/mL (≈ 18.7 µM) | MIC [20]: 7.8 µg/mL (≈ 18.7 µM) | MFC [21]: 7.8 µg/mL (≈ 18.7 µM) | MFC [22]: 7.8 µg/mL (≈ 18.7 µM) | MFC [23]: 7.8 µg/mL (≈ 18.7 µM) | MIC [24]: 7.8 µg/mL (≈ 18.7 µM) | MIC [25]: 7.8 µg/mL (≈ 18.7 µM) | MFC [26]: 15.6 µg/mL (≈ 37.5 µM) | MIC [27]: 7.8 µg/mL (≈ 18.7 µM) | MIC [28]: 7.8 µg/mL (≈ 18.7 µM) | MIC [29]: 7.8 µg/mL (≈ 18.7 µM)
